As a reminder, the IC50 is the midpoint of a concentration-inhibition curve.

The structures appear in SMILES notation.

This is an account of results in patent publication US12723018B2, “Cinnamoyl amino acid compound and use thereof” (CHINA PHARMACEUTICAL UNIVERSITY, priority 2020, dated 2026).

Series [1] concerns the target T1, iNOS (Mus musculus, UniProt P29477).
T1 sequence (P29477 1-1144): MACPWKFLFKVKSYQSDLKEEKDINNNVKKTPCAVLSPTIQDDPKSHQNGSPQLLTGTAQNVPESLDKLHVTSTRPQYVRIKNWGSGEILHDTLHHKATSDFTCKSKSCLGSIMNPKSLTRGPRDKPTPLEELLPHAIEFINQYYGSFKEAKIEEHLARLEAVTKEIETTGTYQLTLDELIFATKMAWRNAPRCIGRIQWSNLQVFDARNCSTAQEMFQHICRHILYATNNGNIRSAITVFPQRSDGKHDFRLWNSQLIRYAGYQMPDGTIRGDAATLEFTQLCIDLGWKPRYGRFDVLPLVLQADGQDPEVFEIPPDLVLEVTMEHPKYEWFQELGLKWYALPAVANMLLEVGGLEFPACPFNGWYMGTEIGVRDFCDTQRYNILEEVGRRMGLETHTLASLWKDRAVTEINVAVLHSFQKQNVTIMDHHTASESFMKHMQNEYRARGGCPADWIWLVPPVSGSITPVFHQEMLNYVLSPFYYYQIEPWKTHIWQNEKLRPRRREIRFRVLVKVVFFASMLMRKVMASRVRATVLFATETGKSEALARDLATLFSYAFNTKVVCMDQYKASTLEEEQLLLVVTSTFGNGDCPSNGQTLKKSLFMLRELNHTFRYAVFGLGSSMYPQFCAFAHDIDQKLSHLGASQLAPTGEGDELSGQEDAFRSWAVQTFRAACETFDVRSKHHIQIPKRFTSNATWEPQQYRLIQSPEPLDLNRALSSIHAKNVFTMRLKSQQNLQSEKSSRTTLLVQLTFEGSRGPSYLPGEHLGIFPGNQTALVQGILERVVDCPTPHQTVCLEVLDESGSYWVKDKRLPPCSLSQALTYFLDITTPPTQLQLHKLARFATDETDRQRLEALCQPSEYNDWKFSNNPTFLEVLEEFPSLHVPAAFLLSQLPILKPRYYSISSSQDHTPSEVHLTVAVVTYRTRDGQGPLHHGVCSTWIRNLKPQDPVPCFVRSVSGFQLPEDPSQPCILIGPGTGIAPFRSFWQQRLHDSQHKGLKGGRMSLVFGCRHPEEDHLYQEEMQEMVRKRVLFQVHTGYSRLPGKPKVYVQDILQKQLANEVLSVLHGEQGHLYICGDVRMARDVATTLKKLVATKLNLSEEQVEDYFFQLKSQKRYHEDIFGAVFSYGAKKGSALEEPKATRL
Description: In vitro iNOS inhibitory effect (iNOS activity detection kit) in LPS-stimulated BV-2 cells. Type of series: cell-based. To be noted: compound 0.01-10 μM added 4 hours before LPS 500 ng/mL for 24 hours, FIG. 1, read-out: iNOS inhibition IC50. How it is done:
Experimental materials: BV-2 cells (purchased from Shanghai Cell Bank, Chinese Academy of Sciences), DMEM cell culture fluid (Sigma), fetal bovine serum (Gibico), 96-well cell culture plate (Corning), DMSO (Sigma), LPS (Sigma), iNOS activity detection kit (Beyotime), test drug 4-trifluoromethyl-cinnamoyl-4-fluoro-L-phenylalanine prepared in Example 1, and microplate reader.
Then according to the group, the drug or blank culture fluid was added to the corresponding group for culture for 4 hours. Finally, except the blank group, each group was stimulated with LPS with a final concentration of 500 ng/mL for 24 hours. The iNOS activity assay was performed according to the requirements of the iNOS detection kit.

The test system of series [2] is MPTP-induced Parkinsonian mice. Description: MPTP-induced Parkinsonian mouse rota-rod experiment. Type of series: in vivo, C57BL/6 male mice. Conditions: 2 mg/kg by gavage for 12 days before MPTP (20 mg/kg i.p. x4); tested 4 h, 24 h, 48 h, 72 h after modeling; FIG. 2. An excerpt: Experimental materials: 10-week-old C57BL/6 male mice (Nanjing Qinglongshan Farm), rota-rod treadmill (Beijing Zhongshi Technology), levodopa and MPTP (Sigma), test drug 4-trifluoromethyl-cinnamoyl-4-fluoro-L-phenylalanine prepared in Example 1 (Compound 2 shown), and test drug 4-hydroxy-3-methoxycinnamoyl-L-tyrosine (Compound 1 shown).
Experimental groups: Mice were randomly divided into 5 groups, 10 mice in each group: a blank group, a model group, a 4-hydroxy-3-methoxycinnamoyl-L-tyrosine (Compound 1 shown, 2 mg/kg) group, a 4-trifluoromethyl-cinnamoyl-4-fluoro-L-phenylalanine (Compound 2 shown, 2 mg/kg) group and a levodopa (15 mg/kg) group. Pre-dosing by gavage was carried out for 12 consecutive days. The blank group and the model group were given equal doses of PBS, and modeling was performed on the 13th day. The model group and the drug group were intraperitoneally injected with MPTP (20 mg/kg), once every 2 h, for 4 consecutive injections. After modeling, behavioral tests were carried out. The behavioral performance of mice was tested with a YLS-4C mouse rota-rod treadmill at 4 h, 24 h, 48 h, and 72 h after MPTP modeling. The time from the start of rotation of the rota-rod to the time leaving the rota-rod of the test mice was taken as the latency. The test time was 180 s, and each mouse was tested 3 times to obtain an average value. […]
On the technique in general: Falling from the rotarod earlier than controls is read as motor impairment.

Series [3] can be described thus: Physicochemical properties: solubility in solvents.
Series [4] relates to MCAO ischemia-reperfusion rats. As to the kind of experiment: Rat ischemia-reperfusion (MCAO) in-vivo model with TTC staining. Also noted: species or system Male SD rats. Conditions: 2 mg/kg by gavage daily, FIG. 3. An excerpt: Experimental materials: Male SD rats, weighing 250-300 g, provided by the Model Animal Research Center of Nanjing University and raised in the Experimental Animal Center of China Pharmaceutical University; triphenyl tetrazolium chloride (TTC) and butyphthalide purchased from Sigma; test drug 4-trifluoromethyl-cinnamoyl-4-fluoro-L-phenylalanine prepared in Example 1 (Compound 2 shown), and test drug 4-hydroxy-3-methoxycinnamoyl-L-tyrosine (Compound 1 shown).
Experimental method: The rats were randomly divided into 5 groups, i.e., a blank group, a model group (MCAO group), an MCAO+4-hydroxy-3-methoxycinnamoyl-L-tyrosine (Compound 1 shown, 2 mg/kg) group, an MCAO+4-trifluoromethyl-cinnamoyl-4-fluoro-L-phenylalanine (Compound 2 shown, 2 mg/kg) group and an MCAO+positive drug butyphthalide (5 mg/kg) group. After successful modeling, administration of different doses of compounds by gavage was carried out every day for 15 consecutive days. After the administration, brains were harvested, subjected to TTC staining, and photographed and recorded.
The effect is better than that of the positive drug and 4-hydroxy-3-methoxycinnamoyl-L-tyrosine (Compound 1 shown).

In the case of `O=C(/C=C/c1ccc(C(F)(F)F)cc1)N[C@@H](Cc1ccc(F)cc1)C(=O)O` [Compound 2, 4-trifluoromethyl-cinnamoyl-4-fluoro-L-phenylalanine], the IC50 in series [1] is 110 nM. Further, the “dyskinesia of the Parkinsonian mice (rota-rod)” value in series [2] was “effectively alleviate the dyskinesia”. In addition, the “running time of the Parkinsonian mice (rota-rod latency)” value in series [2] is recorded as “increase the running time”. The solubility result was “soluble” in series [3] (dichloromethane); “easily soluble” in series [3] (methanol, acetone, ethyl acetate); “insoluble” in series [3] (petroleum ether, water). Besides, the “size of cerebral infarction caused by ischemia reperfusion (TTC staining)” value in series [4] was “effectively reduce the increase in the size of cerebral infarction”.
